Biological target: T1, Low molecular weight phosphotyrosine protein phosphatase (Homo sapiens, UniProt P24666)
T1 sequence (P24666 whole entry): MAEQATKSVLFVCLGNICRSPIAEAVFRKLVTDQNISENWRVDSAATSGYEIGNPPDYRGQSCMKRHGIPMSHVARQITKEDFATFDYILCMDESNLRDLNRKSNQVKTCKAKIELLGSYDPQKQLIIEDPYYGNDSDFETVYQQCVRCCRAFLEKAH
Assay: LMPTP Primary Screening Protocol
Method: 1. Prepare Reagents as described in section F. Recipe.2. Using LabCyte Echo, transfer 60 nL from 2 mM test compound source plate into assay plate Col. 5-48 (final concentration of test compounds is 20 μM). 60 nL of DMSO should be transferred to col. 1-4 for positive and negative control wells.3. Spin plates at 1000 rpm for 1 minute in centrifuge.4. Using the Beckman Coulter Bioraptr, add 3 μL/well of control buffer to columns 1 and 2.5. Using the Bioraptr, add 3 μL/well of enzyme solution to col. […] Using the Bioraptr, add 3 μL/well of substrate solution to col. 1-48.7. Spin plates at 1000 rpm for 1 minute in centrifuge.8. Incubate plates in the dark at room temperature for 50 minutes.9. Read plates on PerkinElmer Viewlux using a FI protocol.

IC50 [µM] | SMILES
0.802 to 5 | CCN1CCN(Cc2ccc(NC3CC(c4ccc(OC)cc4)Nc4ccccc43)cc2)CC1 (stereo not given) [US10626094, Example I206]
> 5 | Clc1cccc(Cl)c1-c1cc(NCCCC2CCCNC2)c2ccccc2n1 (stereo not given) [US11220486, Compound I100]

More lines, now with the values behind:

SMILES | IC50 [µM]
O=C(c1ccc(-c2cc(NCCCC3CCCNC3)c3ccccc3n2)cc1)N1CCCC1 (stereo not given) [4-{4-[(3-piperidylpropyl)amino](2-quinolyl)}phenyl pyrrolidinyl ketone] | 0.802 to 5
c1ccc(-c2cc(NCCN3CCOCC3)c3ccccc3n2)cc1 [(2-morpholin-4-ylethyl)(2-phenyl(4-quinolyl))amine] | 0.802 to 5
CC(C)NC(=O)c1ccc(-c2cc(NCCCC3CCCNC3)c3ccccc3n2)cc1 (stereo not given) [N-(methylethyl)(4-{4-[(3-piperidylpropyl)amino](2-quinolyl)}phenyl)carboxamide] | 0.802 to 5

— BindingDB's records for patent US10626094 (Sanford Burnham Prebys Medical Discovery Institute, 2020)
